Calls of active or inactive are those of the source. Rule as the data show it, for most assays here: actives have a measured IC50 and inactives only a lower limit.

Test [1] deals with T1, Runt-related transcription factor 1/Core-binding factor subunit beta (Homo sapiens, UniProt Q01196+Q13951). The experiment in a line: Confirmation of compounds inhibiting the binding between the RUNX1 Runt domain and CBFb-SMMHC via a fluorescence resonance energy transfer (FRET) assay. [Related pubchem assays (depositor defined):AID1434, AID1438, AID1496, AID1550, AID1645]. Type of test: protein assay.
T1 sequence (Q01196 whole entry, the tested form may be a part): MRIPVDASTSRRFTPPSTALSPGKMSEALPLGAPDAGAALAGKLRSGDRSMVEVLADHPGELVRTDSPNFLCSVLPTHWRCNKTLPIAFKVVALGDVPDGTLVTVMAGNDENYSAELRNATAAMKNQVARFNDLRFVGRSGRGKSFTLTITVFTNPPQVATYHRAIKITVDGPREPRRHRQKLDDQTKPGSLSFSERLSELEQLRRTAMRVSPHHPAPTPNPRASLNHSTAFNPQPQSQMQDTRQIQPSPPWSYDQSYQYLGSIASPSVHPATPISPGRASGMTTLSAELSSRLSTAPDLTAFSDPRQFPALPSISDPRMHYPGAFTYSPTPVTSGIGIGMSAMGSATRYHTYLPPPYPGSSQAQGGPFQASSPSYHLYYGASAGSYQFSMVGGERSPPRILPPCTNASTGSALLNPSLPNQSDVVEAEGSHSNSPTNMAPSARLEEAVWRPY
T1 sequence (Q13951 whole entry, the tested form may be a part): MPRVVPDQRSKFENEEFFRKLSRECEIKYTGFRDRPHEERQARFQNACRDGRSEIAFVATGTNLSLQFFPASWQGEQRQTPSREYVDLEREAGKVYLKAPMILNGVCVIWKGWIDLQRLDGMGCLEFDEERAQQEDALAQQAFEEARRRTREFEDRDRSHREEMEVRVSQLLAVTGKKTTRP

Test [2] addresses T2, Sentrin-specific protease 8 (Homo sapiens, UniProt Q96LD8).
T2 sequence (Q96LD8 whole entry): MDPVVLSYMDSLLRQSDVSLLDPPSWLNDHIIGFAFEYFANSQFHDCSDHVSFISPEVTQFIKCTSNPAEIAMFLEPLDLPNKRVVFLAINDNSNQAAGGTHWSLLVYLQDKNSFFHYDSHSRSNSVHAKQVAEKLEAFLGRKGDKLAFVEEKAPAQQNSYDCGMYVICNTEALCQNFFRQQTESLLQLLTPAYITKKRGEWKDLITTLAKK
It is filed as functional.

For test [3], the target named is T1, Runt-related transcription factor 1/Core-binding factor subunit beta. The experiment in a line: Runt domain/CBFb-SMMHC interaction disruptors – biochemical, TR-FRET (AID 1438). It is filed as protein assay. In general terms: TR-FRET usually uses a lanthanide donor and a delayed reading to cut background.
Test [4] deals with T3, Sentrin-specific protease 7 (Homo sapiens, UniProt Q9BQF6).
T3 sequence (Q9BQF6 whole entry): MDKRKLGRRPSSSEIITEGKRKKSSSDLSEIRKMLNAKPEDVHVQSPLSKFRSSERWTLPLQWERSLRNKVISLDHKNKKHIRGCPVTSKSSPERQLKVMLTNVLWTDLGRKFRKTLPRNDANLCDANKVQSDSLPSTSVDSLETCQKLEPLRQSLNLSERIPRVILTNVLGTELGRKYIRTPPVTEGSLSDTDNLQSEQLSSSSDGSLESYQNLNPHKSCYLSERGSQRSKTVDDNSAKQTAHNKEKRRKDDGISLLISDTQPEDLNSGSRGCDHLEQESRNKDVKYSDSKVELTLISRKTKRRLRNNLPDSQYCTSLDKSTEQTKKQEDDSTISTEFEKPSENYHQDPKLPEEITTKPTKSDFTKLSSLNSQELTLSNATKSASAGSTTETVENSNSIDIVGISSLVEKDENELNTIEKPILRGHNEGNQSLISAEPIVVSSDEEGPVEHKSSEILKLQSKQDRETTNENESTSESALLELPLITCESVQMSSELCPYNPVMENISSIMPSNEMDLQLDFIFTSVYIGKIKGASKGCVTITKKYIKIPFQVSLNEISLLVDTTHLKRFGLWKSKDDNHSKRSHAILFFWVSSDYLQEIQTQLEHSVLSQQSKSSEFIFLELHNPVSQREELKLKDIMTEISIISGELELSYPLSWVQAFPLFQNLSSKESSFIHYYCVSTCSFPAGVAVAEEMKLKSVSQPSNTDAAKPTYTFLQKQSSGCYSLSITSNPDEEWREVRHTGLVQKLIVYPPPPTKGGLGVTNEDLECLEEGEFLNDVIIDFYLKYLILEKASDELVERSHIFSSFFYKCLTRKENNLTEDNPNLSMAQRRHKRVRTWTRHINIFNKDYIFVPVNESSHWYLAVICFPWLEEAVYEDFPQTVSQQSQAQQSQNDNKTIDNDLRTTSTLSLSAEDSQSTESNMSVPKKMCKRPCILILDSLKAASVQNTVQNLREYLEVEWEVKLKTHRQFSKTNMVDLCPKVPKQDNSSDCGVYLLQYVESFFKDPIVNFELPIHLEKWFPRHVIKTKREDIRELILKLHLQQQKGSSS
It is filed as functional.

Test [5] addresses T4, Caspase-3 (Homo sapiens, UniProt P42574).
T4 sequence (P42574 whole entry): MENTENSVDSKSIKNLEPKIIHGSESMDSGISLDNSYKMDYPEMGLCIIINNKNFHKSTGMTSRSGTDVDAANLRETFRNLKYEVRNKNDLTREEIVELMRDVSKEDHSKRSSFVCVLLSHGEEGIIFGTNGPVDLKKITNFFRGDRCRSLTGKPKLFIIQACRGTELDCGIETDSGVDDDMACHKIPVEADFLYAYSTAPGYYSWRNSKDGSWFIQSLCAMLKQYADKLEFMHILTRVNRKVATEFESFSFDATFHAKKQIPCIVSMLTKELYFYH
It is filed as functional.

For test [6], the target named is T1, Runt-related transcription factor 1/Core-binding factor subunit beta. The test is described as follows: disruptors of Runt domain/CBFb-SMMHC interaction – biochemical, FRET, Cerulean-Runt, Venus-CBFb-SMMHC, uHTS, […] (AID 1434). It is filed as protein assay.
For test [7], the target named is T5, Sentrin-specific protease 6 (Homo sapiens, UniProt Q9GZR1).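 Also: Luminescence-based dose-response confirmatory assay of SENP6 inhibition, following up an ultra-high-throughput screen.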
T5 sequence (Q9GZR1 whole entry): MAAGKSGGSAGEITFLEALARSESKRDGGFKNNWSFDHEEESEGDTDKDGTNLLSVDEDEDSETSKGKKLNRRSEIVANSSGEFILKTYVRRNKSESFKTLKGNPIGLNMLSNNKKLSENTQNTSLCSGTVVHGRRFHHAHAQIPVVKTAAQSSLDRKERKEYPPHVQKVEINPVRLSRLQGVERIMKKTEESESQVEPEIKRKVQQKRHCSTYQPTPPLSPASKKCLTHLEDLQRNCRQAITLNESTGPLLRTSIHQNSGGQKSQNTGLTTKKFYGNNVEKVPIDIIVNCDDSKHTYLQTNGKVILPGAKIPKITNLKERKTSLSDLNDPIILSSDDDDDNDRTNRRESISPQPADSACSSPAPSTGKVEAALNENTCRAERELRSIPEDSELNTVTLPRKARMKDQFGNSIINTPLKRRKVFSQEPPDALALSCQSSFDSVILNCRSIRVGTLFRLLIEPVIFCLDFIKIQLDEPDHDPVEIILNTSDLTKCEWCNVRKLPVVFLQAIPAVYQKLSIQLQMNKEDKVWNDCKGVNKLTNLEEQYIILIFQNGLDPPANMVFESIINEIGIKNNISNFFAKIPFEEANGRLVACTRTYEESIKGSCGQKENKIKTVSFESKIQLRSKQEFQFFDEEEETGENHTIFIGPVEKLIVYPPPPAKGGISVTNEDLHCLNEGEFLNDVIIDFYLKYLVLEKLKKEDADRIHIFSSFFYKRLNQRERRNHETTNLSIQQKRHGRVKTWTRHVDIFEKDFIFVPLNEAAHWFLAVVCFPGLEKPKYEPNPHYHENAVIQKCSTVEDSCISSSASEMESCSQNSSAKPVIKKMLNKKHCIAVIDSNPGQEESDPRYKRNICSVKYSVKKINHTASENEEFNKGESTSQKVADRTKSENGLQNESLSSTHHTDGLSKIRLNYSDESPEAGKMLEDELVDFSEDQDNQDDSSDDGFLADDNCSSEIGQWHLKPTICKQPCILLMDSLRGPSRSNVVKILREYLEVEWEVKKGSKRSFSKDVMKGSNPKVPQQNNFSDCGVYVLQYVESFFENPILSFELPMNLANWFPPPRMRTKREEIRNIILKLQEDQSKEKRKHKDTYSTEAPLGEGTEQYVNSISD
It is filed as functional.

Test [8] has as its target T6, Tyrosine-protein phosphatase non-receptor type 22 (Homo sapiens, UniProt Q9Y2R2).
T6 sequence (Q9Y2R2 whole entry): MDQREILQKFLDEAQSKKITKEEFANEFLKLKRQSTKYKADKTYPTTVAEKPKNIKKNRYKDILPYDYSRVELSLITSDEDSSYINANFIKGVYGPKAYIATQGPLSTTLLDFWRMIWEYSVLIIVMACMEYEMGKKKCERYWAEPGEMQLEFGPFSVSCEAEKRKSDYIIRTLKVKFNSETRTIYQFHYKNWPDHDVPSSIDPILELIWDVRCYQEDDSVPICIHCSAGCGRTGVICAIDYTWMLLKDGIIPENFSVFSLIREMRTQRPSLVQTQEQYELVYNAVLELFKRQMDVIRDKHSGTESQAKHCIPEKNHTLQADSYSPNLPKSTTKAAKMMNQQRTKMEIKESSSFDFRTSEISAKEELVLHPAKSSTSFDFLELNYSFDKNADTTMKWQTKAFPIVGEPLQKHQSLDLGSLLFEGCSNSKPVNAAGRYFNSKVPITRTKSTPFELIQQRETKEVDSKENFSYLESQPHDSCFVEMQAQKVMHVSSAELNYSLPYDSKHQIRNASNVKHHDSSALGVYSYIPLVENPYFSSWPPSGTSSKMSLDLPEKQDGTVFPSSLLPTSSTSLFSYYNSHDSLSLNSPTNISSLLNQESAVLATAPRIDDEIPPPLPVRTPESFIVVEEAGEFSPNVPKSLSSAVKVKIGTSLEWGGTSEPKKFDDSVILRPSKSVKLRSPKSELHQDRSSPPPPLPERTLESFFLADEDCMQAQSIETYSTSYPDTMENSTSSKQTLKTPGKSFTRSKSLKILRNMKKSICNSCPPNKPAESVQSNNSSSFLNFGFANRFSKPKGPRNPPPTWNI
The test is described as follows: inhibition of lymphoid tyrosine phosphatase LYP – biochemical, pCAP fluorogenic substrate, fluorescence, set 3, SAR follow-up (AID 449727). It is filed as functional.

The target in test [9] is T7, Tyrosine-protein phosphatase non-receptor type 7 (Homo sapiens, UniProt P35236).
T7 sequence (P35236 whole entry): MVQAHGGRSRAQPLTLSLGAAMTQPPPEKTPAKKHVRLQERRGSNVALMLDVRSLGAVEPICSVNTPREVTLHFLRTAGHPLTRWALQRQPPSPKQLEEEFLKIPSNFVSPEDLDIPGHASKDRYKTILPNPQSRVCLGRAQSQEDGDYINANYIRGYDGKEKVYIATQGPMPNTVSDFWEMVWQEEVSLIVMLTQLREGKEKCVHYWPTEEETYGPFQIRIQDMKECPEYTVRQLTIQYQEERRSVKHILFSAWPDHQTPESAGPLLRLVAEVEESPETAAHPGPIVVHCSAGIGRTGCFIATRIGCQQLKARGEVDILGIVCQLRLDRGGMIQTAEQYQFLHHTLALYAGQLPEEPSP
The test is described as follows: inhibition of hematopoietic tyrosine phosphatase HePTP – biochemical, set 2, SAR follow-up (AID 449736). Type of test: functional.

For test [10], the target named is T6, Tyrosine-protein phosphatase non-receptor type 22. The experiment in a line: SAR LYP1 Fluorescent Assay using pCAP substrate for In Vitro dose response studies - Set 2. [Related pubchem assays (depositor defined):AID1779, AID1784, AID2135, AID449727]. It is filed as functional.
Test [11] has the same target. The experiment in a line: SAR LYP1 Fluorescent Assay using OMFP substrate for In Vitro dose response studies - Set 2. [Related pubchem assays (depositor defined):AID1779, AID1784, AID2140, AID449726, AID488869]. Type of test: functional.
The target is the same in test [12]. The test is described as follows: SAR LYP1 Fluorescent Assay using OMFP substrate for In Vitro dose response studies - Set 3. [Related pubchem assays (depositor defined):AID1779, AID1784, AID2140, AID2686]. Type of test: functional.
Test [13] has as its target T8, Peroxisome proliferator-activated receptor gamma (Homo sapiens, UniProt P37231). The experiment in a line: competitive ligand displacement at PPARg – biochemical, TR-FRET, LanthaScreen, PPARg partial agonist project, dose response (AID 504446).
For test [14], the target named is T8, Peroxisome proliferator-activated receptor gamma. The experiment in a line: PPARg transcriptional activation, reporter cells – cell-based, luminescence, assay provider, dose response (AID 504447). It is filed as functional.
Test [15] addresses Peroxisome proliferator-activated receptor alpha (Homo sapiens, UniProt Q07869). The test is described as follows: Late stage assay provider counterscreen for partial agonists of the peroxisome proliferator-activated receptor gamma (PPARg): Luminescence-based cell-based dose response assay for partial agonists of the peroxisome proliferator-activated receptor alpha (PPARA). [Related pubchem assays (depositor defined):AID1051, AID1300, AID1319, AID1679, AID1808, AID504446, AID504447, AID504452, AID504453, AID631]. It is filed as functional. (In general: The purpose of a counterscreen is to sort out artefacts and off-target activity.)

T8 sequence (P37231 whole entry): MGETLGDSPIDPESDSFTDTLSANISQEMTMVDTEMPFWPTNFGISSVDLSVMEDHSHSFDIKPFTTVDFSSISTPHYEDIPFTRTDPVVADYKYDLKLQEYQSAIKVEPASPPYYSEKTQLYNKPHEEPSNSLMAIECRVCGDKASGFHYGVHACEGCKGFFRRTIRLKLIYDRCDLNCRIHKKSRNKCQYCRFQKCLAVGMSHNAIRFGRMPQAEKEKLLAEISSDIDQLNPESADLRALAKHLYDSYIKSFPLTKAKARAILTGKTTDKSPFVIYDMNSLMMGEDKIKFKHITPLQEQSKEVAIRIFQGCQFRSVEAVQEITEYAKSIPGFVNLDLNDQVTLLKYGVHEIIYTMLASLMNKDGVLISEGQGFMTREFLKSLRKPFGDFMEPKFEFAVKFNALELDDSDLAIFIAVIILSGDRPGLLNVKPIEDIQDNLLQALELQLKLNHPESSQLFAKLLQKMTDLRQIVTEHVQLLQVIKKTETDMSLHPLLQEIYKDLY
Chain of Peroxisome proliferator-activated receptor alpha (Q07869 whole entry): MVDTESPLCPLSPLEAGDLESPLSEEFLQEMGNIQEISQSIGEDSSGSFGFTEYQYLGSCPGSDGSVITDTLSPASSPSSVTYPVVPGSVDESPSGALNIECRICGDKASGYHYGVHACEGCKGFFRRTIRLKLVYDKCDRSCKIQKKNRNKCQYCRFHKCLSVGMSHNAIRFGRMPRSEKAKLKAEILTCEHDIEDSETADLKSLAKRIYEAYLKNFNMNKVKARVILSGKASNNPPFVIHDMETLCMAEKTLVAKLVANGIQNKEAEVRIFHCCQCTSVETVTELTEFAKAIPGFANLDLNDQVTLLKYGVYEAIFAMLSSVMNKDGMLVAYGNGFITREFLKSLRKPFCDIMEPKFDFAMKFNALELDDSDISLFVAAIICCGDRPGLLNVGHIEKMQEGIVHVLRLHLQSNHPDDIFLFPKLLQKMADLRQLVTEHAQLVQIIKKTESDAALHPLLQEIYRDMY

As to `O=S(=O)(Nc1ccc(-c2nc3cccnc3s2)cc1)c1ccc(Cl)s1`, the IC50 (commonly the concentration that inhibits the measured activity by half) was 1.87 µM (active) in test [1]; 29.1 µM (active) in [2]; 24 µM (active) in [3]; 18.8 µM (active) in test [4]; 31.2 µM (active) in test [5]; 5.46 µM (active) in [6]. The IC50 in test [7] is 25 µM (active).
On to `NC1=NC(=O)/C(=C/c2ccc(OCC(=O)O)cc2)S1`, for which the IC50 in test [8] was 44.8 µM (active); in test [9] it was > 100 µM (inactive); in test [10] it was 55 µM (active); in test [11], > 100 µM (inactive); in test [12], > 100 µM (inactive).
Take `O=C(O)CCN1C(=O)/C(=C/c2ccc(F)cc2F)SC1=S`: the IC50 in test [13] is 2.5 µM (active). Also, the EC50 (commonly the midpoint of the concentration-response curve) in test [14] was 1.5 µM (active); in [15] it was 0.057 µM (active).

For the origin of these results see ChEMBL document CHEMBL1201862, “PubChem BioAssay data set” (2004).
